The values that follow come from patent US8962329B2, “Gene cluster” (Shanghai Institute of Organic Chemistry, Chinese Academy of …, priority 2008, dated 2015).

Usually Km stands for the concentration of substrate that gives half-maximal velocity.

In experiment [1] the test system is SfaA. Nature of the experiment: AMP PPi assay of the putative meta-hydroxylase SfaA expressed in E. coli. The format is biochemical, Streptomyces sp. A92-308110 (S. flaveolus). The source says:
Traditional phenylalanine/tyrosine/tryptophan hydroxylation systems all rely on an electrophilic substitution reaction to realize hydroxylation in the electron-rich regions of aromatic systems. On the contrary, the meta-hydroxylation of phenylalanine occurs at the relatively electron-poor meta position of phenylalanine. […] The putative meta-hydroxylase, SfaA, was expressed in E. coli and isolated using standard methods.

The test system of experiment [2] is SfaR. Put plainly: in vitro activity of purified His-tagged SfaR (reduction / reductive carboxylation) on acyl substrates. The format is biochemical, Streptomyces sp A92-309110 (S. flaveolus). The text has this: To validate the central role of SfaR for unusual building block supply in the proposed pathway, we first inactivated sfaR by in-frame deletion. […] Secondly, we heterologously expressed and purified the N-terminal 6× His-tagged SfaR to near homogeneity for in vitro studies. As expected, in the presence of NADPH and bicarbonate, crotonyl-S-CoA (FIG. 7, 4) was efficiently converted by SfaR to the major product ethylmalonyl-S-CoA (FIG. 7, 5) along with the shunt product butyryl-S-CoA (FIG. 7, 7). […] To exclude the possibility that the reaction directly occurs on the ACP, SfaO was expressed and purified as a N-terminal 6×His-tagged derivative. […] Thirdly, to detect the substrate flexibility of SfaR, we synthesized the 5-carbon substrate pentenyl-S-CoA.

Experiment [3] deals with MLR. The conditions noted are these: compared with SFA; cited from earlier work.

Turning to `CC(=O)NCCSC(=O)C(N)Cc1ccccc1` (centres unmarked), the “activity of SfaA on the substrate” value in experiment [1] was “did show activity”. Take `CC/C=C/C(=O)SCCNC(=O)CCNC(=O)[C@H](O)C(C)(C)COP(=O)(O)OP(=O)(O)OC[C@H]1O[C@@H](n2cnc3c(N)ncnc32)[C@H](O)[C@@H]1OP(=O)(O)O` [pentenyl-S-CoA]: the Km in experiment [2] (pentenyl-S-CoA in reductively producing pentanoyl-S-CoA) was 1400 µM. With sanglifehrin B, the “immunosuppressive activity in MLR assays” value in experiment [3] is given as “higher immunosuppressive activity than SFA”. Consider `C/C=C/C(=O)SCCNC(=O)CCNC(=O)[C@H](O)C(C)(C)COP(=O)(O)OP(=O)(O)OC[C@H]1O[C@@H](n2cnc3c(N)ncnc32)[C@H](O)[C@@H]1OP(=O)(O)O` [crotonyl-S-CoA], for which the Michaelis constant (Km) in experiment [2] (substrate crotonyl-S-CoA, SfaR, NADPH) is 840 µM. Regarding `N[C@@H](Cc1ccccc1)C(=O)O` [phenylalanine], the “activity of SfaA on the substrate” value in experiment [1] is given as “no activity”.
